{"source": "patent US8389730B2", "about": "“Compositions and methods for the treatment of disease associated with TRP-P8 expression” (Dendreon Corporation, priority 2003, dated 2013)", "key": {"[1]": {"target": "T1, Trp-p8 (Homo sapiens, UniProt Q7Z2W7, T58I)", "T1 construct": "expressed in transfected cells", "T1 sequence (Q7Z2W7 whole entry T58I)": "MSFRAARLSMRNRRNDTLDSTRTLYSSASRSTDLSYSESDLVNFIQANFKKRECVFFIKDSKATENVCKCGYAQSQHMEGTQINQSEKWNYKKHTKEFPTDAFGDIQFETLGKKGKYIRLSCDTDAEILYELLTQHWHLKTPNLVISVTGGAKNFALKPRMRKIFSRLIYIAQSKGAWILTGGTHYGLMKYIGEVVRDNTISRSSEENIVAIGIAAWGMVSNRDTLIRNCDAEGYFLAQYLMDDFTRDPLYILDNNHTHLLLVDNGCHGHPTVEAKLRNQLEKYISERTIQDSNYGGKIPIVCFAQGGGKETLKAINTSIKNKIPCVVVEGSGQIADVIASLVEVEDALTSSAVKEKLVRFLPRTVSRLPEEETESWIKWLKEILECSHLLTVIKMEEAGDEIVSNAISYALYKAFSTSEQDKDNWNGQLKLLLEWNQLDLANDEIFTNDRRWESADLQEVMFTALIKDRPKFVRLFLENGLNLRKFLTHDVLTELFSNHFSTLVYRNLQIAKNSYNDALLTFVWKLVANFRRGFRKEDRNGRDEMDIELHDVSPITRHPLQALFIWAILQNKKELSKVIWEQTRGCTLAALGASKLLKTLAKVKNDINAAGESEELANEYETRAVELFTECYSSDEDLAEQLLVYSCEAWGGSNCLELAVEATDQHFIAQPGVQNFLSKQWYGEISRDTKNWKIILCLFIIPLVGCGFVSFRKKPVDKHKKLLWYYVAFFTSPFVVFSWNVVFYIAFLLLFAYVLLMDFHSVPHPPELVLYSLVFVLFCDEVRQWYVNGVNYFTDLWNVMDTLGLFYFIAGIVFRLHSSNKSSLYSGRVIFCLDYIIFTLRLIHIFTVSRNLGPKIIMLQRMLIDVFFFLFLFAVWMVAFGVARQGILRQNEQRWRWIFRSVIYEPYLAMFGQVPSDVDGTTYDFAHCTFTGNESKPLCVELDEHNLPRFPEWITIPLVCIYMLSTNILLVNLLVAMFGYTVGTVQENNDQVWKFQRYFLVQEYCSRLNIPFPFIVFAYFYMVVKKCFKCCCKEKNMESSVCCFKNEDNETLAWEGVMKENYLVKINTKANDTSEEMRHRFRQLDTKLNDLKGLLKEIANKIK", "assay": "Calcium flux assay (Fura-2) for agonists in CHO/Trp-p8 cells at 37° C.", "format": "cell-based", "method": "FIGS. 2A-2C are graphs depicting Trp-p8 agonist-induced increases in intracellular calcium as determined by a calcium flux assay performed at 37° C.\nCalcium influx was measured using a Flexstation Microplate Fluorescence Plate Reader (Molecular Devices; Sunnyvale, Calif.). A typical assay for calcium flux was performed as follows. Cells in DMEM/Ham's F-12 based medium, typically at a density of 30,000 cells/well/100 were plated in a 96-well black-walled, clear bottomed tissue culture plate (Greiner Bio-one) and incubated for 16-20 hours at 37° C. Cells in each well were incubated for one hour at 37° C. with a Fura2-AM Fluorescent Dye/Pluronic […] mixture (Molecular Probes; Eugene, Oreg.) and dissolved in the medium containing Probenecid. […]\nTypically, the above described HEPES/HBSS-based buffer containing either no additional calcium or with calcium to increase the concentration to 2 mM and various concentrations of compounds (at 5-times the final concentrations) were added to each well using the robotic multi-channel pipettor. […] Signals were read with dual excitation wavelengths of 340 and 380 nm and emission wavelength of 510 nm with a cut-off filter at 495 nm. The signal was reported as the ratio of emission when excited at 340 nm to the emission when excited at 380 nm [Relative Fluorescence Units (RFU)]. […]"}, "[2]": {"tested_on": "Trp-p8 orthologues", "settings": "reported by McKemy et al. and Peier et al.; cited from earlier work"}, "[3]": {"tested_on": "Trp-p8", "settings": "cold-sensitive neurons, Trp-p8 in Xenopus oocytes, HEK293 and CHO cells; cited from earlier work"}}}
{"molecule": "CC(C)[C@@H]1CC[C@@H](C)C[C@H]1C(=O)NCCc1ccccc1", "note": "[compound 1603]", "values": [{"measurement": "Increase in intracellular calcium (FIG. 2C)", "setting": "[1]; CHO/Trp-p8 cells", "result": "specific, concentration-dependent response"}]}
{"molecule": "CC1CCC(C(C)C)C(O)C1", "note": "(stereo not shown) [Menthol, 2-isopropyl-5-methyl-cyclohexanol]", "values": [{"measurement": "Effective concentration in inducing calcium influx", "setting": "[2]", "result": "10 to 100", "unit": "µM"}, {"measurement": "Higher temperature threshold reported for Trp-p8 activation", "setting": "[3]", "result": "30-32 °C"}]}
{"molecule": "C[C@H](CCC(=O)O)C[C@H](C)C[C@H](C)C(=O)/C=C(\\O)[C@H](C)C[C@H](C)C/C=C/[C@@H](C)[C@@H](O)[C@@H](C)[C@@H](O)C[C@@H]1CC[C@@](C)([C@H]2CC[C@@](C)([C@@H](C)O)O2)O1", "note": "[Ionomycin, reference compound]", "values": [{"measurement": "Response to positive control in calcium flux assay (FIG. 2A)", "setting": "[1]; 1 μM, CHO and CHO/Trp-p8 cells", "result": "respond similarly"}]}
